Assay results published in US11446299B2, “Carbazole EHop-016 derivatives as anticancer and anti-migratory agents” (UNIVERSITY OF PUERTO RICO, priority 2017, dated 2022).
Where two headings read alike, the source gives them in different places.

How the values were obtained:
[1] = tested on: MDA-MB-231 breast cancer cells; test: Wound healing assay (scratch method), cell migration; type: cell-based, human; details: Homo sapiens, MDA-MB-231; for activity at 10 µM: percent relative migration at 10 μM after 24 h, relative to control; for inhibition at 10 µM: read-out: anti-migratory activity (inhibition of migration)
Experimental: The experimental data of anti-migratory activities for compounds 3a-d and 4a-f were obtained using MDA-MB-231 breast cancer cells. For the migration assay, a wound-healing assay (scratch-wound assay) was utilized in the presence of vehicle (0.02% DMSO) or compounds at […].
Prior to assays, cells were grown until 80-90% confluence was observed. A 75 cm2 flask was used for 2.6×10^5 cells/mL in 10 mL and for a 25 cm2 flask 1.44×10^5 cells/mL in 5 mL. The cells were washed with PBS to remove all traces of FBS. 2 mL was added for a 25 cm2 flasks or 4 mL for a 75 cm2 flasks trypsin, and incubated 5-10 min at 37° C. At the end of the incubation time, cells were re-suspended and counted with hemocytometer using 1:2 dilutions with Trypan blue. Subsequently, cell viability was calculated. In a 12 multiwell plate, the plastic pattern was used to draw a fine space with a fine marker on the bottom of the plate. Cells were seeded at 1.5-2.2×10^5 cells/mL in 1 mL and incubated for 24 h. Cells were then rinsed with PBS and incubated in starving media (0.5% FBS) overnight. All controls and drugs were tested in triplicate. The negative control for each drug was prepared according to the drug's DMSO concentration.
Drugs were diluted and the final concentration at each well […]. The wound was made using a sterile pipette tip of […]. Cells were then rinsed very gently with media without FBS and media with negative controls was added. After a 24 h incubation, the gap distance was evaluated using the software Lumera Infinity Analyze 6.4.0. Pictures were taken at 0, 8, 12 and 24 h using a 10× objective. The percentage of migration was calculated using the following formula: 100−[(X0/X0)]*100 for time 0 h measurements 100−[(X24/X0)]*100 for time 24 h measurements
The experimental data of anti-migratory activities for compounds 3a-d and 4a-f were obtained using MDA-MB-231 breast cancer cells, and results are summarized in Table 1. For the migration assay, we used a wound-healing assay (scratch-wound assay)^22 in the presence of vehicle (0.02% DMSO) or compounds at 10 μM (FIG. 6). […] However, compounds 3a, 3c, and 4a-f inhibited migration in the range of 1-9%.
An additional example of a compounds with modification in building block C was synthesized via a different procedure as represented in Scheme 2B (see FIG. 11B). The compounds that were synthesized were tested for their biological activity by determination of their cytotoxicity in MDA-MB-231 breast cancer cell lines as shown in Table 5. The cytotoxicity's are expressed as IC50, which indicates the concentration at which 50% of the cell growth is inhibited. Furthermore, the inhibition of cell migration was tested at a concentration of 0.2×IC50, or, when the IC50 was >50 μM at a concentration of 10 μM. For comparison, Table 5 also includes the Lipinski and drug-likeness parameters as calculated via the MolSoft platform.
Migration assays were performed via the Scratch Method as described previously.

MCF-7 cancer cells = test: Sulforhodamine B (SRB) growth inhibition assay; type: cell-based; details: Homo sapiens, MCF7, 24 h treatment, mean of triplicate, SD <10%
Experimental: (§1) Various compounds were tested to evaluate the dose response curve for effect on MCF-7 cancer cells and MDA-MB-231 cancer cells. MCF-7 and MDA-MB-231 cells were cultured in 10% Minimum Essential Medium Eagle (MEME) supplemented with Earle's Balanced Salt Solution (EBSS), Non-essential Amino acids (NEAA), Sodium pyruvate, Pen/Strep, L-glutamine and Fetal Bovine Serum (FBS) at 37° C. in 5% CO2.
(§2) Sulforhodamine B (SRB) Assay: A stock solution of compounds was prepared at 50 mM in 100% DMSO. For cells preparation, a flask of 75 cm^2 or 25 cm^2 were used for 2.6×10^5 cells or 1.44×10^5 cells respectively with an 80-90% of confluence. Cells were washed with PBS and trypsinized. The concentration of cells was determined using a 1:2 dilutions with Trypan Blue and a hemocytometer. After cell count, the concentration was adjusted to have a 1.9×10^4 cells/well. Approximately […] of cells suspension, compounds, control positive and control negative were added in triplicates to a 96 well plate. Positive controls used were ellipticine, doxorubicin, and/or vincristine, and the negative control was DMSO 0.1%. All compounds at 50, 25, 12.5, 6.3, and 1.6 μM were incubated with cells at 37° C. for 24 hrs. For fixation, cold TCA 50% was used and incubated at 4° C. for 1 hr. Wells were washed and dried prior to tincture with 100 μL of SRB 0.4%. To remove excess of SRB, acetic acid was used. For analysis, TRIS-BASE Solution (pH=10.5) was used and shacked prior to reading using an ELISA reader at 510 nm and the software SoftMax Pro 4.8.
(§3) For each compound, 50% growth inhibition (GI50) was calculated from Sigmoidal dose-response curves (variable-slope) that were generated with data obtained from experiments carried out in triplicates (GI50 values were generated with GraphPad Prism V. 6.02, GraphPad Software, Inc.). The results are presented in FIGS. 4A-4B (MCF-7 cancer cells) and FIGS. 5A-5B (MDA-MB-231 cancer cells).

MDA-MB-231 cancer cells = test: Sulforhodamine B (SRB) growth inhibition assay; type: cell-based, human; details: for GI50: Homo sapiens, MDA-MB-231, SRB assay, 24 h treatment, mean of triplicate, SD <10%; for anti-proliferative activity / cytotoxicity in words: MDA-MB-231, concentrations ≤50 μM
Experimental: as §1, §2, §3

SMILES | activity at 10 µM [1] | GI50 (MCF-7 cancer cells) | GI50 (MDA-MB-231 cancer cells) | inhibition at 10 µM [1] | inhibition at 10 µM ([1]; at 10 μM, 24 h) | anti-proliferative activity / cytotoxicity in words (MDA-MB-231 cancer cells) | anti-proliferative activity in words (MDA-MB-231 cancer cells; MDA-MB-231 at <50 pM as printed)
CCn1c2ccccc2c2cc(Nc3ncccc3C(=O)NCCCN3CCOCC3)ccc21 [Compound 4a, 2-(9-ethyl-9H-carbazol-3-ylamino)-N-(3-norpholinopropyl)nicotinamide] | 99 ± 1.28% | 28 µM | > 50 µM | – | – | – | –
CCn1c2ccccc2c2cc(NC(=O)C3CCCCC3C(=O)NCCCN3CCOCC3)ccc21 (stereo not shown) [Compound 14h, cyclohexane-1,2-dicarboxylic acid 1-[(9-ethyl-9H-carbazol-3-yl)-amide]-2-[(3-morpholin-4-yl-propyl)-amide]] | 100 ± 0.56% | > 50 µM | > 50 µM | – | – | – | –
CCn1c2ccccc2c2cc(NC(=O)c3cccnc3N3CCOCC3)ccc21 [Compound 3b, N-(9-ethyl-9H-carbazol-3-yl)-2-morpholinonicotinamide] | 68 ± 10.5% | > 50 µM | > 50 µM | 32% | 32% | no anti-proliferative activity | minor anti-proliferative activity
CCn1c2ccccc2c2cc(NC(=O)c3cccnc3NCCCN3CCOCC3)ccc21 [Compound 3d] | 76 ± 7.87% | > 50 µM | 19 µM | 24% | 24% | – | –
CCn1c2ccccc2c2cc(NC(=O)c3nccnc3C(=O)NCCOC)ccc21 [Compound 14d, N^2-(9-ethyl-9H-carbazol-3-yl)-N^3-(2-methoxyethyl)pyrazine-2,3-dicarboxamide] | 100 ± 5.2% | > 50 µM | > 50 µM | – | – | – | –
CCn1c2ccccc2c2cc(Nc3ncccc3C(=O)NCCCn3ccnc3)ccc21 [Compound 4c, N-(3-(1H-imidazol-1-yl)propyl)-2-((9-ethyl-9H-carbazol-3-yl)amino)nicotinamide] | 93 ± 2.01% | 27 µM | > 50 µM | – | – | – | –
CCn1c2ccccc2c2cc(NC(=O)c3cccnc3N3CCN(C(C)=O)CC3)ccc21 [Compound 3a, 2-(4-acetylpiperazin-1-yl)-N-(9-ethyl-9H-carbazol-3-yl)nicotinamide] | 93 ± 11.7% | > 50 µM | > 50 µM | – | – | – | –
CCn1c2ccccc2c2cc(C(=O)Nc3cccnc3NCCCN3CCOCC3)ccc21 [Compound 11a, 9-Ethyl-9H-carbazole-3-carboxylic Acid [2-(3-morpholin-4-yl-propylamino)-pyridin-3-yl]-amide] | 89 ± 10.1% | 32 µM | 39 µM | – | – | – | –
CCn1c2ccccc2c2cc(NC(=O)c3ccccc3C(=O)NCCO)ccc21 [Compound 14f, N^1-(9-ethyl-9H-carbazol-3-yl)-N^2-(2-hydroxyethyl)phthalamide] | 98 ± 1.83% | > 50 µM | > 50 µM | – | – | – | –
CCn1c2ccccc2c2cc(NC(=O)c3cccnc3N3CCN(c4ccccc4)CC3)ccc21 [Compound 3c, N-(9-ethyl-9H-carbazol-3-yl)-2-(4-phenylpiperazin-1-yl)nicotinamide] | 99 ± 1.89% | > 50 µM | > 50 µM | – | – | – | –
CCn1c2ccccc2c2cc(Nc3ncccc3NC(=O)c3cccnc3)ccc21 [Compound 7b, N-(2-((9-ethyl-9H-carbazol-3-yl)amino)pyridin-3-yl)nicotinamide] | 81 ± 11.1% | 41 µM | 31 µM | – | – | – | –
CCn1c2ccccc2c2cc(Nc3ncccc3C(=O)NCCN3CCN(C(=O)OC(C)(C)C)CC3)ccc21 [Compound 4b] | 95 ± 9.8% | > 50 µM | > 50 µM | – | – | – | –
CCn1c2ccccc2c2cc(NC(=O)c3nccnc3C(=O)NCCN3CCOCC3)ccc21 [Compound 14a, N^2-(9-ethyl-9H-carbazol-3-yl)-N^3-(2morpholinoethyl)pyrazine-2,3-dicarboxamide] | 91 ± 5.23% | > 50 µM | > 50 µM | – | – | – | –
CCn1c2ccccc2c2cc(NC(=O)c3nccnc3C(=O)NCCCN3CCOCC3)ccc21 [Compound 14b, N^2-(9-ethyl-9H-carbazol-3-yl)-N^3-(3-morpholinopropyl)pyrazine-2,3-dicarboxamide] | 94 ± 5.87% | > 50 µM | > 50 µM | – | – | – | –
CCn1c2ccccc2c2cc(NC(=O)C3CCCCC3C(=O)NCCN3CCOCC3)ccc21 (stereo not shown) [Compound 14g] | 99 ± 1.63% | > 50 µM | > 50 µM | – | – | – | –
CCn1c2ccccc2c2cc(Nc3ncccc3C(=O)Nc3cc(OC)c(OC)c(OC)c3)ccc21 [Compound 4f, 2-((9-ethyl-9H-carbazol-3-yl)amino)-N-(3,4,5-trimethoxyphenyl)nicotinamide] | 92 ± 8.55% | > 50 µM | > 50 µM | – | – | – | –
CCn1c2ccccc2c2cc(NC(=O)c3ccccc3C(=O)NCCOC)ccc21 [Compound 14e, N^1-(9-ethyl-9H-carbazol-3-yl)-N^2-(2-methoxyethyl)phthalamide] | 99 ± 2.57% | > 50 µM | > 50 µM | – | – | – | –
CCN(CC)CCCC(C)NC(=O)c1cccnc1Nc1ccc2c(c1)c1ccccc1n2CC (stereo not shown) [Compound 4d, N-(4-Diethylamino-1-methyl-butyl)-2-(9-ethyl-9H-carbazol-3-ylamino)-nicotinamide] | 91 ± 14.1% | 13 µM | 18 µM | – | – | – | –
CCn1c2ccccc2c2cc(NC(=O)c3nccnc3C(=O)NCCCn3ccnc3)ccc21 [Compound 14c, Pyrazine-2,3-dicarboxylic acid 2-[(9-ethyl-9H-carbazol-3-yl)-amide]-3-[(3-imidazol-1-yl-propyl)-amide]] | 99 ± 4.5% | > 50 µM | > 50 µM | – | – | – | –
CCn1c2ccccc2c2cc(Nc3ncccc3NCC(=O)N3CCOCC3)ccc21 [Compound 7c] | 81 ± 8.27% | 23 µM | > 50 µM | – | – | minimal cytotoxicity | –
CCn1c2ccccc2c2cc(Nc3ncccc3NC(=O)CCN3CCCCC3)ccc21 [Compound 7a, N-[2-(9-Ethyl-9H-carbazol-3-ylamino)-pyridin-3-yl]-3-piperidin-1-yl-propionamide] | 99 ± 4.29% | 15 µM | 23 µM | – | – | – | –
CCN(CC)CCNC(=O)c1cccnc1Nc1ccc2c(c1)c1ccccc1n2CC [Compound 4e, N-(2-(diethylamino)ethyl)-2-((9-ethyl-9H-carbazol-3-yl)amino)nicotinamide] | 99 ± 4.12% | 14 µM | 18 µM | – | – | – | –
